Experimental data from the METLIN SMRT retention time set (Domingo-Almenara et al. 2019).

Experiment: gradient 5% acetonitrile 3 min, to 50% in 2 min, to 85% in 15 min, held 3 min, 100 µL/min
Conditions: column: Zorbax Extend-C18 2.1 x 50 mm; eluents: water / acetonitrile, 0.1% formic acid
Procedure, shortened: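 The system's dead and dwell volumes were 40 μL and 900 μL, with a Zorbax Extend-C18 column (2.1 × 50 mm, 1.8 μm) run at 100 μL/min in water and acetonitrile containing 0.1% formic acid each. Pure standards were analyzed in mixtures of ~100 molecules by HPLC–quadrupole time-of-flight mass spectrometry in positive and negative ionization mode. Retention time was assigned from computationally picked, manually inspected adduct peaks.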

RP-LC retention time [s]	SMILES
720	CC(=O)Nc1cccc(N2CC(C(=O)Nc3ccc(C)cc3Br)CC2=O)c1 (stereo not drawn)
700	O=C(c1ccc(Cn2cncn2)cc1)N1CCN(c2ccc(F)cc2)CC1
817	Cc1c(Cl)cccc1NC(=O)Cn1c(C)nc2onc(C)c2c1=O
688	O=C(NCc1cccs1)c1ccc2c(c1)NC(=O)C1CCCCN21 (stereo not drawn)
575	CCc1ccccc1NC(=O)N1CCc2nc[nH]c2C1
700	COC(=O)C(Cc1ccccc1)NC(=O)Nc1cccn2cnnc12 (stereo not drawn)
827	CCOC(=O)Cn1c(-c2nnc(C)o2)cc2ccccc21
883	Cc1cccc(CNC(=O)Cn2c(C)cc(-c3nnc(C4CCC4)o3)c2C)c1
620	CCc1nc(N)n(CC(=O)Nc2cc(F)ccc2C)c(=O)c1C
646	Cc1ccc2c(=O)c3c([nH]c2c1C)CCN(CC(=O)Nc1ccc(F)c(F)c1)C3
739	COC(=O)c1cc(OCC(=O)NCc2ccc3c(c2)OCO3)c2ccccc2n1
577	c1ccc(CN2CCCC(OCc3nc(-c4ccncc4)no3)C2)nc1 (stereo not drawn)
1180	CCCc1ccc(-c2cc(C(=O)N3CCN(c4ncccn4)CC3)c3ccccc3n2)cc1
723	COCc1nc2cccnc2n1C1CCN(C(=O)Nc2cc(Cl)c(OC)cc2OC)CC1
774	Cc1ccc(NC(=O)N2CCC(N3CCN(Cc4ccc(F)cc4)C(=O)C3=O)CC2)cc1C
791	CCOc1ccc(N2CC(NC(=O)C(=O)c3c[nH]c4ccccc34)CC2=O)cc1 (stereo not drawn)
613	O=C(O)c1cnc(NCc2ccccn2)nc1-c1cccc(Cl)c1
914	O=C(Nc1c2c(nn1-c1cccc(Cl)c1)CSC2)C(=O)N1CCCC1
851	CCc1nc2cc(N3CCC(C(=O)NCc4ccc(F)cc4)CC3)cnc2nc1CC
798	CCOc1ccc(S(=O)(=O)N2CC(F)(F)C[C@H]2CN2CCc3ccccc3C2)cc1
842	COc1ccc(C(=O)N2CCCC(COc3ccc(C(=O)NC(C)C)cc3)C2)c(C)c1 (stereo not drawn)

RP-LC retention time [s]	SMILES
707	O=C(Cn1nc2c3ccc(F)cc3ncn2c1=O)Nc1ccc2c(c1)OCO2
766	CCCNC(=O)C1CCN(c2ccc(SCC(=O)Nc3cc(C)c(Cl)cc3OC)nn2)CC1
666	CCOC(=O)c1cccc(Nc2c(C(=O)N3CCC(C)CC3)cnc3nc(C)ccc23)c1
906	CCOC(=O)c1ccccc1NC(=O)CSc1ccc(-c2ccccn2)nn1
809	Cc1ccc2c(c1)NN=C(C(=O)N1CCC(C)CC1)S2(=O)=O
841	O=C(Cc1ccccc1Cl)N1CCC2(CC1)N=C(c1ccccc1)NO2
647	CCOC(=O)c1nc(NCCCN2CCN(c3ccc(F)cc3)CC2)c2ccccc2n1
559	O=C(NC1CC1)c1nc(C(=O)N2CCN(c3ccccn3)CC2)cs1
829	O=C(Nc1cnc(-c2ccc(F)cc2)nc1)C1CC1
662	CN(CC(=O)Nc1ccc(S(N)(=O)=O)cc1)c1nc2ccccc2s1
685	COc1cccc(NC(=O)N(C)CC2CCOCC2)c1
918	Cn1cccc1C(=O)C(=O)NCc1cccc(Br)c1
1130	Cc1nn(-c2nc(-c3ccccc3)cs2)c(C)c1CC(=O)Nc1ccccc1
1130	COc1ccc(-c2noc(C3CCCN3C(=O)Nc3cc(Cl)ccc3OC)n2)cc1 (stereo not drawn)
823	CC1(C(=O)NC2CCCC2)Cn2cnc(C(=O)NCCCc3ccccc3)c2C(=O)N1C1CC1 (stereo not drawn)
686	Cn1ncc2c(N3CCOCC3)nc(C(=O)NCc3cccs3)nc21
557	CCCNc1cc(N2CCC(CCC(=O)NCCc3ccccn3)CC2)ncn1
975	CC(C)N1C(=O)c2cccnc2Sc2cc(NC(=O)c3ccc(Cl)s3)ccc21
775	CCCCNC(=O)C1c2ccccc2C(=O)N(C)C1c1cccs1 (stereo not drawn)
720	CCCC(NC(=O)Cc1ccc(OC)c(Cl)c1)C(=O)Nc1nc2ccccc2[nH]1 (stereo not drawn)

Continued, molecule first:

SMILES	RP-LC retention time [s]
COc1ccc(C(=O)N2CCCC2c2nc(-c3ccc(OC)c(OC)c3)no2)cc1 (stereo not drawn)	848
O=C(c1ccc([N+](=O)[O-])o1)N1CC2CC(C1)c1cccc(=O)n1C2 (stereo not drawn)	585
O=C(NC1CC1)c1nc(-c2ccncc2)cs1	574
CCOc1ccc(C(=O)NCc2ccc3c(c2)Sc2ncccc2C(=O)N3CC)cc1	791
Cc1ccc(Sc2nccnc2N2CCCC(C(=O)Nc3ccc(Br)cc3)C2)cc1 (stereo not drawn)	1280
COc1ccc(-c2noc(C3CCCN3C(=O)c3ccsc3)n2)cc1 (stereo not drawn)	849
CCOC(=O)c1ccc(NS(=O)(=O)c2cc(-c3c(CC)noc3NC(C)=O)ccc2C)cc1	822
c1ccc(CCCCN2CCC(c3ccccc3)CC2)cc1	851
COc1ccc(-c2noc(CS(=O)(=O)c3ccc(Cl)cc3)n2)cc1OC	1030
CCCCOc1ccc(NC(N)=Nc2ccc(Cl)cc2)cc1	778
CCn1nccc1C(=O)Nc1ccc(-n2cnnn2)cc1	652
Cc1nc2ccc(C(=O)NC3CCN(C)CC3)cc2nc1C	566
O=C(NC1CCCC1)c1ccn[nH]1	614
Cc1csc(-c2ccc(N3CCN(C(=O)c4cc(F)ccc4Cl)CC3)nc2)n1	910
CCN(CC)C(=O)N1CC(n2cc(C(=O)N3CCOCC3)nn2)C1	612
COc1cc(NC(=O)CCc2c(-c3ccccc3)nc3ccccn23)cc(OC)c1	671
CCCNc1c(C(=O)OC)c(=O)[nH]c2ccc(F)cc12	699
COc1ccc(S(=O)(=O)N2CCCC(C(=O)NC3CCCC3)C2)cc1OC (stereo not drawn)	802
COC(=O)c1c(NC(=O)c2ccc([N+](=O)[O-])o2)sc(Cc2ccc3c(c2)OCO3)c1C	1130
O=C(NCc1ccccc1)c1ccc(CN2CCN(Cc3ccc(F)cc3)C(=O)C2=O)cc1	774
Nc1ncnc(NCc2ccco2)c1[N+](=O)[O-]	643
Cc1cc(C)c(CNC(=O)C2CCN(c3cnc4nccnc4c3)CC2)c(C)c1	793
CCCCN(C)C(=O)C1CCCCc2nnc(C(C)C)n21 (stereo not drawn)	666
Cc1cc(C)c2nc(C)cc(C(=O)NC(C)C)c2c1	650
CCCCCn1c(=O)c2ccccc2n(Cc2nc(-c3ccc(Cl)c(F)c3)no2)c1=O	659
Cc1cc(-c2nnc(C3CCC3)o2)c(C)n1CC(=O)NCc1cc(F)cc(F)c1	864

SMILES	RP-LC retention time [s]
Cc1cc(S(=O)(=O)N2CCCCC2c2nncn2C)ccc1F (stereo not drawn)	717
CC1CCCCN1CCCNC(=O)Cn1c(=O)c2cccn2c2ccc(F)cc21 (stereo not drawn)	611
O=C(c1cccc(F)c1)N1CCC(C(=O)N2CCN(Cc3ccc4c(c3)OCO4)CC2)CC1	610
CCCNc1cc(N2CCCC(CCC(=O)N3CCN(CC(C)C)CC3)C2)ncn1 (stereo not drawn)	552
Cc1cc(C)cc(Nc2nc(C)cc3nn(CC(=O)NC(C)C)c(=O)n23)c1	949
Cc1noc(C)c1CC(=O)NCc1nnc2n1CCCC2	559
Cc1cc(C(=O)Nc2ccc(-c3ccn[nH]3)cc2)c(C)o1	716
CCS(=O)(=O)Nc1ccc(C2(C(=O)NCC(C)C)CCCCC2)cc1	879
CCCn1ccc2oc(C)c(C(=O)NCc3ccc(CC)cc3)c2c1=O	1170
Cc1cccc2sc(N(CCN(C)C)C(=O)c3ccc(S(=O)(=O)N(C)C)cc3)nc12	598
C1CCCC(NC2=NCCO2)CCC1	680
CCOCCCNC(=O)CCCN1C(=O)CCn2nc(C)cc21	568
CC(=O)N1CCC2(CC1)CC(CC(=O)NCc1ccc(C)o1)CCO2 (stereo not drawn)	625
COc1ccc(NS(=O)(=O)c2ccc(/C=C\c3onc(C)c3NC(C)=O)cc2)cc1	779
Cc1ccc2[nH]c(C(=O)NCc3ccncc3)cc2c1	628
CCOC(=O)N1CCN(Cc2nc(-c3ccc(N4CCCCC4)nc3)no2)CC1	757
Cc1nc(-c2noc(-c3cccnc3)n2)cn1CC(=O)NC1CCCCC1	668
CN(C)CC/C=C1/c2ccccc2COc2ccccc21	760
Cc1ccc(CNC(=O)C2CCN(S(=O)(=O)c3ccc4c(c3)sc(=O)n4C)CC2)cc1	862
O=C(Nc1cnn(-c2ncncc2N2CCOCC2)c1)C1CCCC1	624
Cc1cc(NS(=O)(=O)c2cn(CC(C)C)c3ncccc23)ccc1F	989
CN(C)CCNC(=O)Cc1cccn1-c1ccc(Cl)cc1	618
CCN(Cc1ccc(OC)cc1)Cc1cc(=O)c2cc(F)ccc2[nH]1	613
COc1ccc(C2CC(=O)c3c([nH]c(C(=O)OC4CCCCC4)c3C)C2)cc1OC (stereo not drawn)	1070
COCCN1C(=O)[C@H]2CN(Cc3ccc(F)c(F)c3)C[C@H]2C1=O	623
COC(=O)c1ccc(-c2nc3cnccn3c2Nc2cc(C)cc(C)c2)cc1	978
